Assay results reported in patent publication US11932654B2, “Nimbolide analogs as anti-cancer agents and preparation thereof” (priority 2018, dated 2024).

How the values were obtained:
Assay type in all cases: cell-based
[1] = system: DU-145 prostate cancer cell line; assay: In vitro anticancer activity, SRB assay, DU-145; settings: Homo sapiens, 48 h, NA = Not Active
Experimental: (§1) Cell culture: Human lung adenocarcinoma cell line (A549 cell line), pancreatic cancer cell line (Panc-1, Pan-02), prostate cancer cell line (DU145, PC3), Brest cancer cell line (MCF-7) was grown in DIEM (Dulbecco's modifications of eagle's medium with L-glutamine & 4.5 g/L glucose) supplemented with fetal bovine serum in a humidified atmosphere of a 5% CO2 at 37° C.
(§2) In vitro anticancer activity: Cells were harvested from exponential phase cultures by trypsinization, counted and plated in 96-well plate. Optimal seeding densities for different cell lines in each plate were 5000 cells per well. After 24 h cells were treated with \ the newly synthesized compound at a dose range of 0.1-100 μm final concentration. Thereafter, cells were allowed to grow for 48 h before determination of cell survival by the SRB assay. Then the cells were fixed with 10% cold trichloroacetic acid for 1 h at 4° C. After two washes with deionized water, fixed cells were stained with 50 μL of SRB solution (1% in acetic acid) for 30 min and subsequently washed twice with 1% acetic acid to remove unbound stain. The plates were left to dry at room temperature and bound stain was solubilized with 100 μL of 10 mM buffered Tris base for reading the […] at 540 nm.

[2] = system: MCF-7 breast cancer cell line; assay: In vitro anticancer activity, SRB assay, MCF-7; settings: Homo sapiens, MCF7, 48 h, NA = Not Active
Experimental: as §1, §2

[3] = system: Panc-1 pancreatic cancer cell line; assay: In vitro anticancer activity, SRB assay, Panc-1; settings: Homo sapiens, 48 h, NA = Not Active
Experimental: as §1, §2

[4] = system: PC3 prostate cancer cell line; assay: In vitro anticancer activity, SRB assay, PC3; settings: 48 h, NA = Not Active
Experimental: as §1, §2

[5] = system: A549 lung adenocarcinoma cell line; assay: In vitro anticancer activity, SRB assay, A549; settings: Homo sapiens, 48 h, NA = Not Active
Experimental: as §1, §2

Structure (SMILES)	IC50 [1]	IC50 [2]	IC50 [3]	IC50 [4]	IC50 [5]
COC(=O)C[C@H]1[C@]2(C)C3=C(C)[C@H](c4ccoc4)C[C@@H]3O[C@@H]2[C@@H]2OC(=O)[C@]3(C)C(C(O)c4ccc([N+](=O)[O-])cc4)=CC(=O)[C@@]1(C)C23 (stereo partly shown) [A3]	9.31 µM	4.74 µM	7.79 µM	9.08 µM	12.2 µM
COC(=O)C[C@H]1[C@]2(C)C3=C(C)[C@H](c4ccoc4)C[C@@H]3O[C@@H]2[C@@H]2OC(=O)[C@]3(C)C(OCc4ccccc4)CC(=O)[C@@]1(C)C23 (stereo partly shown) [A2]	1.45 µM	4.72 µM	8.78 µM	1.01 µM	13.1 µM
COC(=O)C[C@H]1[C@]2(C)C3=C(C)[C@H](c4ccoc4)C[C@@H]3O[C@@H]2[C@@H]2OC(=O)[C@]3(C)C4CC4C(=O)[C@@]1(C)C23 (stereo partly shown) [A5]	7.91 µM	17.1 µM	1.04 µM	20.6 µM	60.8 µM

The remaining lines, values ahead:

IC50 [1]	IC50 [2]	IC50 [3]	IC50 [4]	IC50 [5]	Structure (SMILES)
75.1 µM	32.5 µM	32.9 µM	79.1 µM	67.2 µM	COC(=O)C[C@H]1[C@]2(C)C3=C(C)[C@H](c4ccoc4)C[C@@H]3O[C@@H]2[C@@H]2OC(=O)[C@]3(C)CCC(=O)[C@@]1(C)C23 (stereo partly shown) [A6]
–	56.6 µM	85.5 µM	21 µM	89.4 µM	COC(=O)C[C@H]1[C@]2(C)C3=C(C)[C@H](c4ccoc4)C[C@@H]3O[C@@H]2[C@@H]2OC(=O)[C@]3(C)C(Nc4ccccc4)CC(=O)[C@@]1(C)C23 (stereo partly shown) [A8]
–	52.2 µM	18.6 µM	65.3 µM	23.9 µM	COC(=O)C[C@H]1[C@]2(C)C3=C(C)[C@H](c4ccoc4)C[C@@H]3O[C@@H]2[C@@H]2OC(=O)[C@]3(C)C(Sc4cccc(N)c4)CC(=O)[C@@]1(C)C23 (stereo partly shown) [A7]
